*1 amine or outer side, *2 acyl side, *3 side chain or, on linkers, in order; H or OH if unused. Where a SMILES comes first, the peptide text is derived from it. [ ]: non-standard residue; d: D form. X2 = O=C([C@H](CCNCc1ccccn1)N[*:1])[*:2]; Cha = N[C@@H](CC1CCCCC1)C(=O)O; Chg = N[C@H](C(=O)O)C1CCCCC1; Tle = CC(C)(C)[C@H](N)C(=O)O; dDab = NCC[C@@H](N)C(=O)O; Orn = NCCC[C@H](N)C(=O)O; dDap = NC[C@@H](N)C(=O)O; Dab = NCC[C@H](N)C(=O)O
System: human red blood cells (hRBC)
Experiment: Hemolysis of human red blood cells
Type: cell-based
Conditions: red cells of human, 1 h, 100
Method in brief: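 Washed fresh human erythrocytes (20% v/v, about 0.9×10^9 cells/ml final) incubated with peptide at 100 μg/ml for 1 h at 37° C with shaking. Supernatant OD540 read; hemolysis expressed relative to 2.5% Triton X-100 (100%) and PBS with 0.001% acetic acid (0%).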

Compound	Hemolysis at 100 μg/ml [%]
CC(C)C[C@@H]1NC(=O)[C@@H]2CCCN2C(=O)[C@H]2CCCN2C(=O)[C@H](CO)NC(=O)[C@H](CCN)NC(=O)[C@H](C(C)(C)C)NC(=O)[C@H](CCN)NC(=O)[C@H](Cc2c[nH]c3ccccc23)NC(=O)[C@H](CCN)NC(=O)[C@@H](CCN)NC(=O)[C@H](CCCN)NC(=O)[C@H](CCN)NC(=O)[C@H](Cc2ccc(O)cc2)NC(=O)[C@H]([C@@H](C)O)NC1=O [compound 115] (cyclo(LTY[Dab][Orn][dDab][Dab]W[Dab][Tle][Dab]S[dP]P))	0
C[C@@H]1NC(=O)[C@H](C(C)(C)C)NC(=O)[C@H](CCN)NC(=O)[C@H](Cc2c[nH]c3ccccc23)NC(=O)[C@H](CCN)NC(=O)[C@@H](CCN)NC(=O)[C@H](CCCN)NC(=O)[C@H](CCN)NC(=O)[C@H](Cc2ccc(O)cc2)NC(=O)[C@H](CO)NC(=O)[C@H](Cc2ccc(O)cc2)NC(=O)[C@@H]2CCCN2C(=O)[C@H]2CCCN2C(=O)[C@H](Cc2ccc(O)cc2)NC1=O [compound 153] (cyclo(YSY[Dab][Orn][dDab][Dab]W[Dab][Tle]AY[dP]P))	2
CC(C)[C@@H]1NC(=O)[C@@H]2CCCN2C(=O)[C@H]2CCCN2C(=O)[C@H](CO)NC(=O)[C@H](C)NC(=O)[C@H](C(C)(C)C)NC(=O)[C@H](CCN)NC(=O)[C@H](Cc2c[nH]c3ccccc23)NC(=O)[C@H](CCN)NC(=O)[C@@H](CCN)NC(=O)[C@H](CCCN)NC(=O)[C@H](CCN)NC(=O)[C@H](CC2CCCCC2)NC(=O)[C@H](CO)NC1=O [compound 50] (cyclo(VS[Cha][Dab][Orn][dDab][Dab]W[Dab][Tle]AS[dP]P))	4
CC(C)C[C@@H]1NC(=O)[C@@H]2CCCN2C(=O)[C@H]2CCCN2C(=O)[C@H](CO)NC(=O)[C@H](CC(N)=O)NC(=O)[C@H](C(C)(C)C)NC(=O)[C@H](CCN)NC(=O)[C@H](Cc2c[nH]c3ccccc23)NC(=O)[C@H](CCN)NC(=O)[C@@H](CCN)NC(=O)[C@H](CCCN)NC(=O)[C@H](CCN)NC(=O)[C@H](Cc2ccc(O)cc2)NC(=O)[C@H](CC(=O)O)NC1=O [compound 123] (cyclo(LDY[Dab][Orn][dDab][Dab]W[Dab][Tle]NS[dP]P))	0
CC(C)C[C@@H]1NC(=O)[C@@H]2CCCN2C(=O)[C@H]2CCCN2C(=O)[C@H](CO)NC(=O)[C@H](CC(N)=O)NC(=O)[C@H](C(C)(C)C)NC(=O)[C@H](CCN)NC(=O)[C@H](Cc2c[nH]c3ccccc23)NC(=O)[C@H](CCN)NC(=O)[C@@H](CCN)NC(=O)[C@H](CCCN)NC(=O)[C@H](CCN)NC(=O)[C@H](Cc2ccc(O)cc2)NC(=O)[C@H](CC(N)=O)NC1=O [compound 121] (cyclo(LNY[Dab][Orn][dDab][Dab]W[Dab][Tle]NS[dP]P))	0
CC(C)C[C@@H]1NC(=O)[C@@H]2CCCN2C(=O)[C@H]2CCCN2C(=O)[C@H]([C@@H](C)O)NC(=O)[C@H](CO)NC(=O)[C@H](C(C)(C)C)NC(=O)[C@H](CCN)NC(=O)[C@H](Cc2c[nH]c3ccccc23)NC(=O)[C@H](CCN)NC(=O)[C@@H](CCN)NC(=O)[C@H](CCN)NC(=O)[C@H](CCN)NC(=O)[C@H](Cc2ccc(O)cc2)NC(=O)[C@H]([C@@H](C)O)NC1=O [compound 124] (cyclo(LTY[Dab][Dab][dDab][Dab]W[Dab][Tle]ST[dP]P))	0.5
C[C@@H]1NC(=O)[C@H](C(C)(C)C)NC(=O)[C@H](CCN)NC(=O)[C@H](Cc2c[nH]c3ccccc23)NC(=O)[C@H](CCN)NC(=O)[C@@H](CN)NC(=O)[C@H](CCCN)NC(=O)[C@H](CCN)NC(=O)[C@H](CC2CCCCC2)NC(=O)[C@H](CO)NC(=O)[C@H](Cc2c[nH]c3ccccc23)NC(=O)[C@@H]2CCCN2C(=O)[C@H]2CCCN2C(=O)[C@H](CO)NC1=O [compound 19] (cyclo(WS[Cha][Dab][Orn][dDap][Dab]W[Dab][Tle]AS[dP]P))	3
C[C@@H]1NC(=O)[C@H](C(C)(C)C)NC(=O)[C@H](CCN)NC(=O)[C@H](Cc2c[nH]c3ccccc23)NC(=O)[C@H](CCN)NC(=O)[C@H](CCN)NC(=O)[C@H](CCCN)NC(=O)[C@H](CCN)NC(=O)[C@H](Cc2ccc(O)cc2)NC(=O)[C@H](CO)NC(=O)[C@H](Cc2c[nH]c3ccccc23)NC(=O)[C@@H]2CCCN2C(=O)[C@H]2CCCN2C(=O)[C@H](CO)NC1=O [compound 74] (cyclo(WSY[Dab][Orn][Dab][Dab]W[Dab][Tle]AS[dP]P))	0
CC(C)C[C@@H]1NC(=O)[C@@H]2CCCN2C(=O)[C@H]2CCCN2C(=O)[C@H](CO)NC(=O)[C@H](C)NC(=O)[C@H](C(C)(C)C)NC(=O)[C@H](CCN)NC(=O)[C@H](Cc2c[nH]c3ccccc23)NC(=O)[C@H](CCN)NC(=O)[C@H](CCN)NC(=O)[C@H](CCCN)NC(=O)[C@H](CCN)NC(=O)[C@H](Cc2ccc(O)cc2)NC(=O)[C@H](CO)NC1=O [compound 24] (cyclo(LSY[Dab][Orn][Dab][Dab]W[Dab][Tle]AS[dP]P))	1
C[C@@H]1NC(=O)[C@H](C(C)(C)C)NC(=O)[C@H](CCN)NC(=O)[C@H](Cc2c[nH]c3ccccc23)NC(=O)[C@H](CCN)NC(=O)[C@H](CCN)NC(=O)[C@H](CCCN)NC(=O)[C@H](CCN)NC(=O)[C@H](CC2CCCCC2)NC(=O)[C@H](CO)NC(=O)[C@H](Cc2c[nH]c3ccccc23)NC(=O)[C@@H]2CCCN2C(=O)[C@H]2CCCN2C(=O)[C@H](CO)NC1=O [Ex. 1] (cyclo(WS[Cha][Dab][Orn][Dab][Dab]W[Dab][Tle]AS[dP]P))	1
CC(C)C[C@@H]1NC(=O)[C@@H]2CCCN2C(=O)[C@H]2CCCN2C(=O)[C@H](CO)NC(=O)[C@H](Cc2ccc(O)cc2)NC(=O)[C@H](C(C)(C)C)NC(=O)[C@H](CCN)NC(=O)[C@H](Cc2c[nH]c3ccccc23)NC(=O)[C@H](CCN)NC(=O)[C@@H](CCN)NC(=O)[C@H](CCCN)NC(=O)[C@H](CCN)NC(=O)[C@H](Cc2ccc(O)cc2)NC(=O)[C@H]([C@@H](C)O)NC1=O [compound 113] (cyclo(LTY[Dab][Orn][dDab][Dab]W[Dab][Tle]YS[dP]P))	0
CC[C@H](C)[C@@H]1NC(=O)[C@@H]2CCCN2C(=O)[C@H]2CCCN2C(=O)[C@H](CO)NC(=O)[C@H](C)NC(=O)[C@H](C(C)(C)C)NC(=O)[C@H](CCN)NC(=O)[C@H](Cc2c[nH]c3ccccc23)NC(=O)[C@H](CCN)NC(=O)[C@@H](CCN)NC(=O)[C@H](CCCN)NC(=O)[C@H](CCN)NC(=O)[C@H](Cc2ccc(O)cc2)NC(=O)[C@H](CO)NC1=O [compound 44] (cyclo(ISY[Dab][Orn][dDab][Dab]W[Dab][Tle]AS[dP]P))	2
CC(C)[C@@H]1NC(=O)[C@@H]2CCCN2C(=O)[C@H]2CCCN2C(=O)[C@H](CO)NC(=O)[C@H](C)NC(=O)[C@H](C2CCCCC2)NC(=O)[C@H](CCN)NC(=O)[C@H](Cc2c[nH]c3ccccc23)NC(=O)[C@H](CCN)NC(=O)[C@@H](CCN)NC(=O)[C@H](CCCN)NC(=O)[C@H](CCN)NC(=O)[C@H](Cc2ccc(O)cc2)NC(=O)[C@H](CO)NC1=O [compound 90] (cyclo(VSY[Dab][Orn][dDab][Dab]W[Dab][Chg]AS[dP]P))	2
C[C@@H]1NC(=O)[C@H](C(C)(C)C)NC(=O)[C@H](CCN)NC(=O)[C@H](Cc2c[nH]c3ccccc23)NC(=O)[C@H](CCN)NC(=O)[C@@H](CCN)NC(=O)[C@H](CCCN)NC(=O)[C@H](CCN)NC(=O)[C@H](CC2CCCCC2)NC(=O)[C@H](CCNCc2ccccn2)NC(=O)[C@H](Cc2c[nH]c3ccccc23)NC(=O)[C@@H]2CCCN2C(=O)[C@H]2CCCN2C(=O)[C@H](CO)NC1=O [compound 12] (cyclo(W[X2][Cha][Dab][Orn][dDab][Dab]W[Dab][Tle]AS[dP]P))	0

Source: patent publication US9938322B2, “β-hairpin peptidomimetics” (priority 2013, dated 2018)
